This is an account of results in patent US5672603A, “Apoptosis regulating composition” (Otsuka Pharmaceutical Co., Ltd., priority 1991, dated 1997).

In one experiment the test system is CMK cells. The experiment can be described thus: Apoptosis-regulating effect: DNA fragmentation in CMK cells (agarose gel electrophoresis). Particulars: 30 μg/ml; 2 or 4 days. In kind it is cell-based, human. On the procedure: CMK cells were used to prepare a suspension of 1×10^5 cells/ml in RPMI-1640 medium supplemented with fetal calf serum and Compound 1 was added at a concentration of 30 μg/ml. The mixture was incubated in a culture flask at 37° C. for 2 or 4 days. As a control, the medium to which the solvent alone was added was similarly incubated.
Cells were harvested by centrifugation at 4° C. for 10 minutes at 200×G. The pellet was dissolved in a hypotonic buffer (10 mM Tris-HCl, 1 mM EDTA and 0.2% Triton 100, pH 7.5) and the solution was centrifuged at 4° C. for 10 minutes at 13000×G. The supernatant was collected and allowed to stand in 50% isopropyl alcohol -0.5M NaCl at -20° C. overnight. The resultant precipitate was centrifuged at 4° C. for 10 minutes at 13000×G, the supernatant was discarded, and the sediment was dried. The dry sediment was resuspended in 10 mMTris-HCl-1 mM EDTA (pH 7.4). To the supernatant was added RNase at a final concentration of 0.1 mg/ml and the mixture was incubated at 37° C. for 1 hour.
To a sample corresponding to the cell count of 1×10^6 was added 1/5 volume of a loading buffer containing 15 mM EDTA, 2% SDS, 50% glycerol and 0.05% bromphenol blue, and the mixture was incubated at 65° C. for 10 minutes.
The culture sample thus obtained was subjected to electrophoresis in 1.5% agarose gel at 100 V for 100 minutes. The DNA was stained with ethidium bromide. […]

The test system of experiment [1] is Human promyelocytic leukemia cells (HL-60). The experiment can be described thus: Cancer cell growth inhibition, HL-60 (long-term culture, trypan blue viable count). In kind it is cell-based. Particulars: control 100. The source says:
The human promyelocytic leukemia cell line HL-60 is a human leukemia cell line established by Robert Gallo et al. and typical properties thereof are described in the literature [Gallo, R. C. et al., Blood, 54, 713 (1979)]. It is available from the American Type Culture Collection (ATCC) under the accession number ATCC No. CCL-240.
(§1) The concentration of HL-60 cells was adjusted to 1×10^5 cells/ml using RPMI-1640 medium (GIBCO) supplemented with 10% of FCS (fetal calf serum; GIBCO).
(§2) Test compound 1 was dissolved in acetic acid, followed by dilution with the same medium as used above in (1) and neutralization with 2N NaOH to give final concentrations of 100 μg/ml, 10 μg/ml and 1.0 μg/ml.
(§3) a) The test compound solutions prepared as described above under (3) were added to the HL-60 cell suspension prepared as described above under (1) to final concentrations of 10 μg/ml and 1.0 μg/ml. Using 12-well culture plates (Costar), cultivation was conducted in a 5% carbon dioxide gas incubator maintained at 37° C. for 3 to 4 days. The test compound-free medium was used as a control. Thereafter, the cell suspension in each well was sampled and mixed with 0.2% trypan blue-containing phosphate buffer, and unstained viable cells were counted under a microscope. Based on the counting result, the viable cell concentration was readjusted to 1×10^5 cells/ml, and cultivation was continued under the same conditions.

Experiment [2] relates to Human stomach cancer cells (KATO-III). The experiment is described as follows: Cancer cell growth inhibition, KATO-III. In kind it is cell-based. The following applies: control 100. How it is done: The cell concentration was adjusted to 1×10^5 cells/ml using the same medium as used above in (1).
as §2, §3
KATO-III cells prepared as described above under (2) were cultivated in the same manner.

A further experiment concerns HL-60 cells. The experiment can be described thus: Differentiation of HL-60 cells (Giemsa and esterase staining). In kind it is cell-based, human. Particulars: day 27. On the procedure: as §1
Giemsa stain solution was prepared by diluting Giemsa reagent (Merck) 50-100 times with phosphate buffer (pH 6.4).
A reagent for esterase staining (Muto Kagaku) was used according to the naphthol AS-D chloroacetate method.
HL-60 cells prepared as described above under (1) were cultivated in the same manner as in a). Cells collected on day 27 were placed on a slide glass and subjected to Giemsa staining, followed by morphological observation under a microscope. […] The results of esterase staining by the naphthol AS-D chloroacetate method indicated differentiation of 70-85% of HL-60 cells into granulocytes.

As to `COc1ccc(C(=O)N2CCN(c3ccc4c(c3)CCC(=O)N4)CC2)cc1OC` [Compound 1, 6-[4-(3,4-Dimethoxybenzoyl)-1-piperazinyl]-3,4-dihydrocarbostyril], the “Apoptosis (DNA fragmentation)” value in the experiment with CMK cells is recorded as “promotes apoptosis of CMK cells”. Besides, the activity at 1 µg/mL came out at 76 ± 3.8% in experiment [1] (HL-60, 648 h, on day 27, 1.0 μg/ml); 0% in experiment [1] (HL-60, 792 h, on day 33, 1.0 μg/ml); 88 ± 2.3% in experiment [2] (576 h, on day 24, 1.0 μg/ml); 0% in experiment [2] (792 h, on day 33, 1.0 μg/ml). In addition, the activity at 10 µg/mL came out at 54 ± 2.6% in experiment [1] (HL-60, 648 h, on day 27, 10 μg/ml); 0% in experiment [1] (HL-60, 792 h, on day 33, 10 μg/ml); 61 ± 1.5% in experiment [2] (576 h, on day 24, 10 μg/ml); 0% in experiment [2] (792 h, on day 33, 10 μg/ml). Also, in the experiment on HL-60 cells, the “Morphological change, Giemsa staining” value is recorded as “differentiation into cells with granule was observed”. Moreover, in the experiment on HL-60 cells (naphthol AS-D chloroacetate method), the “Differentiation of HL-60 cells into granulocytes (esterase staining)” value is given as 70-85%.
